Reference: ChEMBL document CHEMBL4376820, “Homodimeric Tobramycin Adjuvant Repurposes Novobiocin as an Effective Antibacterial Agent against Gram-Negative Bacteria” (J Med Chem, 2019)

Tests used:
Pseudomonas aeruginosa [1] = assay: Synergistic antibacterial activity against wild type Pseudomonas aeruginosa PAO1 assessed as potentiation of meropenem-induced antibacterial effect incubated for 18 hrs by checkerboard assay; assay type: functional, organism-based
Erythrocyte = assay: Hemolytic activity against porcine erythrocytes assessed as hemoglobin release at 1024 ug/ml incubated for 1 hr by microplate reader analysis; assay type: ADME, cell-based, Sus scrofa; details: pig
Pseudomonas aeruginosa [2] = assay: Synergistic antibacterial activity against wild type Pseudomonas aeruginosa PAO1 assessed as potentiation of ciprofloxacin-induced antibacterial effect incubated for 18 hrs by checkerboard assay; assay type: functional, organism-based
Pseudomonas aeruginosa [3] = assay: Synergistic antibacterial activity against wild type Pseudomonas aeruginosa PAO1 assessed as potentiation of chloramphenicol-induced antibacterial effect incubated for 18 hrs by checkerboard assay; assay type: functional, organism-based
Pseudomonas aeruginosa [4] = assay: Synergistic antibacterial activity against wild type Pseudomonas aeruginosa PAO1 assessed as potentiation of clindamycin-induced antibacterial effect incubated for 18 hrs by checkerboard assay; assay type: functional, organism-based
Pseudomonas aeruginosa [5] = assay: Antibacterial activity against wild type Pseudomonas aeruginosa PAO1 assessed as fractional inhibitory concentration index incubated for 18 hrs in presence of colistin by checkerboard assay; assay type: functional
Pseudomonas aeruginosa [6] = assay: Synergistic antibacterial activity against wild type Pseudomonas aeruginosa PAO1 assessed as potentiation of cefotaxime-induced antibacterial effect incubated for 18 hrs by checkerboard assay relative to cefotaxime alone; assay type: functional
Pseudomonas aeruginosa [7] = assay: Synergistic antibacterial activity against wild type Pseudomonas aeruginosa PAO1 assessed as potentiation of ciprofloxacin-induced antibacterial effect incubated for 18 hrs by checkerboard assay relative to ciprofloxacin alone; assay type: functional
Pseudomonas aeruginosa [8] = assay: Synergistic antibacterial activity against wild type Pseudomonas aeruginosa PAO1 assessed as potentiation of levofloxacin-induced antibacterial effect incubated for 18 hrs by checkerboard assay relative to levofloxacin alone; assay type: functional
Pseudomonas aeruginosa [9] = assay: Synergistic antibacterial activity against wild type Pseudomonas aeruginosa PAO1 assessed as potentiation of piperacillin-induced antibacterial effect incubated for 18 hrs by checkerboard assay relative to piperacillin alone; assay type: functional
Pseudomonas aeruginosa [10] = assay: Potentiation of novobiocin-induced antibacterial activity against carbapenem and colistin-resistant Pseudomonas aeruginosa 91433 clinical isolate assessed as novobiocin MIC at <= 7.1 uM incubated for 18 hrs by CLSI protocol based assay (reference value: 16 ug/ml); assay type: functional; details: Pseudomonas aeruginosa, 91433, 18 h
Pseudomonas aeruginosa [11] = assay: Potentiation of novobiocin-induced antibacterial activity against carbapenem-resistant Pseudomonas aeruginosa 101885 clinical isolate assessed as novobiocin MIC at <= 7.1 uM incubated for 18 hrs by CLSI protocol based assay (reference value: 1024 ug/ml); assay type: functional; details: Pseudomonas aeruginosa, 101885, 18 h
Acinetobacter baumannii [12] = assay: Potentiation of novobiocin-induced antibacterial activity against Acinetobacter baumannii 031 clinical isolate assessed as novobiocin MIC at <= 7.1 uM incubated for 18 hrs by CLSI protocol based assay (reference value: 8 ug/ml); assay type: functional; details: Acinetobacter baumannii, 031, 18 h
Escherichia coli [13] = assay: Potentiation of novobiocin-induced antibacterial activity against wild type Escherichia coli ATCC 25922 assessed as novobiocin MIC at <= 7.1 uM incubated for 18 hrs by CLSI protocol based assay (reference value: 64 ug/ml); assay type: functional; details: ATCC 25922, 18 h
Escherichia coli [14] = assay: Potentiation of novobiocin-induced antibacterial activity against colistin-resistant Escherichia coli 94474 clinical isolate harboring mcr-1 gene assessed as novobiocin MIC at <= 7.1 uM incubated for 18 hrs by CLSI protocol based assay (reference value: 256 ug/ml); assay type: functional; details: Escherichia coli, 94474, 18 h
Klebsiella pneumoniae [15] = assay: Potentiation of novobiocin-induced antibacterial activity against colistin-resistant Klebsiella pneumoniae 113250 clinical isolate assessed as novobiocin MIC at <= 7.1 uM incubated for 18 hrs by CLSI protocol based assay (reference value: 512 ug/ml); assay type: functional; details: Klebsiella pneumoniae, 113250, 18 h
Klebsiella pneumoniae [16] = assay: Potentiation of novobiocin-induced antibacterial activity against Klebsiella pneumoniae 116381 clinical isolate assessed as novobiocin MIC at <= 7.1 uM incubated for 18 hrs by CLSI protocol based assay (reference value: 1024 ug/ml); assay type: functional; details: Klebsiella pneumoniae, 116381, 18 h
Klebsiella pneumoniae [17] = assay: Potentiation of novobiocin-induced antibacterial activity against colistin-resistant Klebsiella pneumoniae 113254 clinical isolate assessed as novobiocin MIC at <= 7.1 uM incubated for 18 hrs by CLSI protocol based assay (reference value: 256 ug/ml); assay type: functional; details: Klebsiella pneumoniae, 113254, 18 h
Enterobacter cloacae [18] = assay: Potentiation of novobiocin-induced antibacterial activity against colistin-resistant Enterobacter cloacae 121187 clinical solate assessed as novobiocin MIC at <= 7.1 uM incubated for 18 hrs by CLSI protocol based assay (reference value: 64 ug/ml); assay type: functional; details: Enterobacter cloacae, 121187, 18 h
Pseudomonas aeruginosa [19] = assay: Antibacterial activity against wild type Pseudomonas aeruginosa PAO1 incubated for 18 hrs by CLSI protocol based assay; assay type: functional; details: PAO1, 18 h
Pseudomonas aeruginosa [20] = assay: Antibacterial activity against carbapenem-resistant Pseudomonas aeruginosa 100036 clinical isolate incubated for 18 hrs by CLSI protocol based assay; assay type: functional; details: Pseudomonas aeruginosa, 100036, 18 h
Pseudomonas aeruginosa [21] = assay: Antibacterial activity against colistin and carbapenem-resistant Pseudomonas aeruginosa 101243 clinical isolate incubated for 18 hrs by CLSI protocol based assay; assay type: functional; details: Pseudomonas aeruginosa, 101243, 18 h
Escherichia coli [22] = assay: Antibacterial activity against carbapenem-resistant Escherichia coli 107115 clinical isolate harboring mcr-1 gene incubated for 18 hrs by CLSI protocol based assay; assay type: functional; details: Escherichia coli, 107115, 18 h
Klebsiella pneumoniae [23] = assay: Antibacterial activity against Klebsiella pneumoniae 116381 clinical isolate incubated for 18 hrs by CLSI protocol based assay; assay type: functional; details: Klebsiella pneumoniae, 116381, 18 h
Enterobacter cloacae [24] = assay: Antibacterial activity against Enterobacter cloacae 117029 clinical solate incubated for 18 hrs by CLSI protocol based assay; assay type: functional; details: Enterobacter cloacae, 117029, 18 h
Pseudomonas aeruginosa [25] = assay: Potentiation of novobiocin-induced antibacterial activity against carbapenem and colistin-resistant Pseudomonas aeruginosa 114228 clinical isolate assessed as fold reduction in novobiocin MIC incubated for 18 hrs by CLSI protocol based assay relative to novobiocin MIC; assay type: functional
Acinetobacter baumannii [26] = assay: Potentiation of novobiocin-induced antibacterial activity against Acinetobacter baumannii 110193 clinical isolate assessed as fold reduction in novobiocin MIC incubated for 18 hrs by CLSI protocol based assay relative to novobiocin MIC; assay type: functional
Klebsiella pneumoniae [27] = assay: Potentiation of novobiocin-induced antibacterial activity against colistin-resistant Klebsiella pneumoniae 113250 clinical isolate assessed as fold reduction in novobiocin MIC incubated for 18 hrs by CLSI protocol based assay relative to novobiocin MIC; assay type: functional
Klebsiella pneumoniae [28] = assay: Potentiation of novobiocin-induced antibacterial activity against Klebsiella pneumoniae 116381 clinical isolate assessed as fold reduction in novobiocin MIC incubated for 18 hrs by CLSI protocol based assay relative to novobiocin MIC; assay type: functional
Klebsiella pneumoniae [29] = assay: Bactericidal activity against Klebsiella pneumoniae 116381 assessed as log reduction in colony forming units per ml at 7.1 in LB media after 24 hrs by time-kill assay; assay type: functional
Acinetobacter baumannii [30] = assay: Antibacterial activity against wild type Acinetobacter baumannii ATCC 17978 assessed as resistant development at 7.1 uM measured after 5 days of passaging in presence of novobiocin by microbroth dilution method relative to control; assay type: functional
Acinetobacter baumannii [31] = assay: Antibacterial activity against novobiocin and test compound-resistant Acinetobacter baumannii ATCC 17978 mutant generated from seven serial passages in presence of novobiocin by checkerboard assay; assay type: functional
[32] = Toxicity in Galleria mellonella larvae MDR Acinetobacter baumannii isolate assessed as mortality at 100 mg/kg measured after 24 hrs relative to control; assay type: ADME, organism-based; details: in vivo, read-out: Activity

In the case of NC[C@H]1O[C@H](O[C@H]2[C@H](OCCCCc3cn(CCCCO[C@@H]4[C@@H](O[C@H]5O[C@H](CO)[C@@H](O)[C@H](N)[C@H]5O)[C@H](N)C[C@H](N)[C@H]4O[C@H]4O[C@H](CN)[C@@H](O)C[C@H]4N)nn3)[C@@H](O[C@H]3O[C@H](CO)[C@@H](O)[C@H](N)[C@H]3O)[C@H](N)C[C@@H]2N)[C@H](N)C[C@@H]1O.O=C(O)C(F)(F)F.O=C(O)C(F)(F)F.O=C(O)C(F)(F)F.O=C(O)C(F)(F)F.O=C(O)C(F)(F)F.O=C(O)C(F)(F)F.O=C(O)C(F)(F)F.O=C(O)C(F)(F)F.O=C(O)C(F)(F)F.O=C(O)C(F)(F)F, the Activity (Pseudomonas aeruginosa [1]) is reported as “Dose-dependent effect”, the Activity (Erythrocyte) is reported as “Non-Toxic” and the Activity (Pseudomonas aeruginosa [2]) is reported as “Dose-dependent effect”. The Activity (Pseudomonas aeruginosa [3]) was “Dose-dependent effect”, the Activity (Pseudomonas aeruginosa [4]) was “Dose-dependent effect” and the “fractional inhibitory concentration index (FICI)” value (Pseudomonas aeruginosa [5]) was over 4. The “fold change (FC)” value (Pseudomonas aeruginosa [6]) was 4 - 128, the “fold change (FC)” value (Pseudomonas aeruginosa [7]) was 4 - 128 and the “fold change (FC)” value (Pseudomonas aeruginosa [8]) was 4 - 128. For the same compound, the “fold change (FC)” value (Pseudomonas aeruginosa [9]) was 4 - 128, the MIC (Pseudomonas aeruginosa [10]) was 1 µg/mL and the MIC (Pseudomonas aeruginosa [11]) was 8 µg/mL. For the same compound, the MIC (Acinetobacter baumannii [12]) was 0.5 µg/mL, the MIC (Escherichia coli [13]) was 2 µg/mL and the MIC (Escherichia coli [14]) was 16 µg/mL. The MIC (Klebsiella pneumoniae [15]) was 16 µg/mL, the MIC (Klebsiella pneumoniae [16]) was 8 µg/mL and the MIC (Klebsiella pneumoniae [17]) was 16 µg/mL. The MIC (Enterobacter cloacae [18]) was 8 µg/mL, the MIC (Pseudomonas aeruginosa [19]) was over 128 µg/mL and the MIC (Pseudomonas aeruginosa [20]) was over 128 µg/mL. The MIC (Pseudomonas aeruginosa [21]) was over 128 µg/mL, the MIC (Escherichia coli [22]) was over 128 µg/mL and the MIC (Klebsiella pneumoniae [23]) was over 128 µg/mL. For the same compound, the MIC (Enterobacter cloacae [24]) was over 128 µg/mL, the Ratio (Pseudomonas aeruginosa [25]) was 32 and the Ratio (Acinetobacter baumannii [26]) was 256. For the same compound, the Ratio (Klebsiella pneumoniae [27]) was 32, the Ratio (Klebsiella pneumoniae [28]) was 128 and the Activity (Klebsiella pneumoniae [29]) was -8.68 CFU/ml. The “fold change (FC)” value (Acinetobacter baumannii [30]) was 16, the MIC (Acinetobacter baumannii [31]) was 16 µg/mL and the mortality at 24 h [32] was 100%.
